Assay results as given in publication PMC6264139, “Schiff Bases of Indoline-2,3-dione: Potential Novel Inhibitors of Mycobacterium Tuberculosis (Mtb) DNA Gyrase ^†” (Molecules, 2011).
Several values for one entry are separate records, joined by “and”; a condition that tells them apart may be missing. Equal entries are not always repeated. Where two headings read alike, the source gives them in different places.

Molecular target: Mtb DNA gyrase (Mycobacterium tuberculosis, UniProt P9WG45+P9WG47)
Assay: Mtb DNA gyrase supercoiling inhibition assay
Format: biochemical, Mycobacterium tuberculosis strain H37RV
Settings: 60 minutes at 37 °C, inhibitor 1.56 to 200 µM
Protocol: Two-fold increases in inhibitor concentrations ranging from 1.56 to 200 µM were added to pBR322 relaxed DNA in the presence of Mtb DNA gyrase enzyme. Control lanes are: Lane 1, DNA with no enzyme or inhibitor and Lane 2, DNA with enzyme but no inhibitor. IC50 values were calculated by measurement of fluorescence intensity after ethidium bromide staining of the supercoiling band at the bottom of the lanes. […] (b) IC50 curves of supercoiling (SC) fluorescence data. DNA fluorescence was quantitated with an Alpha Imager 2200 Analysis System (Cell Biosciences, Santa Clara, CA, USA) and IC50 values were determined by nonlinear regression analysis with Graphpad Prism software (Graphpad Software, Inc., San Diego, CA, USA). IDV = Integrated Density Value.
The isatin Schiff bases synthesized and characterized in this report were tested for their ability to inhibit supercoiling activity of DNA gyrase. DNA gyrase is the only enzyme known so far having the ability to introduce negative supercoils in DNA. In all the species of mycobacteria, including Mtb, DNA gyrase is the sole type II topoisomerase carrying out the reactions of both gyrase and topoisomerase IV. Since the DNA gyrase from Mtb and M. smegmatis are highly similar at a functional as well as a protein sequence level and antigenic properties, Mtb strain H37RV DNA gyrase has been used for carrying out the supercoiling assays.
Relaxed pBR322 DNA (0.1 µg) was incubated with 1 unit of Mtb DNA gyrase for 60 minutes at 37 °C in the following buffer: 2 mM ATP, 4 mM DTT, 25 mM KCl, 6 mM magnesium acetate, 50 µg/mL of molecular grade BSA, 0.1 mg/mL E. coli tRNA, 2mM spermidine, 100 mM potassium glutamate and 40 mM Tris-HCL pH 7.5 (20 µL). Reactions are stopped with 0.5% SDS, 6 mM EDTA, 5.35% glycerol, and 0.013% bromophenol blue (10 µL). Reactions are then loaded onto a 1% agarose/ TBE gel to separate supercoiled and relaxed DNA forms and run overnight at 22 volts. Bands are visualized by staining with 0.5 µg/mL EtBr in 1 × TBE for 40 minutes then washing with dH2O for 120 minutes. Quantification is done on the AlphaImager 2200 system. DNA gyrase subunits, GyrA and GyrB, were isolated from Mtb strain H37RV genomic DNA, expressed and purified in pET overexpression constructs in E coli. One unit of DNA supercoiling activity is defined as the amount that converts ~50% relaxed DNA, in the standard assay, to supercoiled DNA in 60 minutes at 37 °C.

[1] = Mtb wt gyrase IC50, supercoiling of relaxed pBR322 DNA

Mtb DNA gyrase, sequence (P9WG45 whole entry): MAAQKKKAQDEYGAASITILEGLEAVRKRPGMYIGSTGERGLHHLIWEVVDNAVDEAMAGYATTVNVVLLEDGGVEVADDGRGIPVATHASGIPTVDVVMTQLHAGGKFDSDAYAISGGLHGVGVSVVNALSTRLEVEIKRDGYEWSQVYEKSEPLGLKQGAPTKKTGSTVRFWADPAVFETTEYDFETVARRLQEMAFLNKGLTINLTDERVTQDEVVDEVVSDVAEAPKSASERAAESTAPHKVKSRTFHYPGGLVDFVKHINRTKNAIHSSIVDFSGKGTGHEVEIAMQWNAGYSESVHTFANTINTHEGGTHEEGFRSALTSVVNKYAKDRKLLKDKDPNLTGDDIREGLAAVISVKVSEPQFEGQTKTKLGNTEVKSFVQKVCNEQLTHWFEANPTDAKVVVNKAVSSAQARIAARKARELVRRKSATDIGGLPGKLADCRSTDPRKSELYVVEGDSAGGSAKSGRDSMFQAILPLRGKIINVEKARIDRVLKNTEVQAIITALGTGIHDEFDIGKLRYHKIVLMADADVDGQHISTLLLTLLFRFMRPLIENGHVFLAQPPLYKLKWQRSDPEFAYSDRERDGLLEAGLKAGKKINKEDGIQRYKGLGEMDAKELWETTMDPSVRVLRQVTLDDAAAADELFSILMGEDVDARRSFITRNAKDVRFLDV
Mtb DNA gyrase, sequence (P9WG47 whole entry): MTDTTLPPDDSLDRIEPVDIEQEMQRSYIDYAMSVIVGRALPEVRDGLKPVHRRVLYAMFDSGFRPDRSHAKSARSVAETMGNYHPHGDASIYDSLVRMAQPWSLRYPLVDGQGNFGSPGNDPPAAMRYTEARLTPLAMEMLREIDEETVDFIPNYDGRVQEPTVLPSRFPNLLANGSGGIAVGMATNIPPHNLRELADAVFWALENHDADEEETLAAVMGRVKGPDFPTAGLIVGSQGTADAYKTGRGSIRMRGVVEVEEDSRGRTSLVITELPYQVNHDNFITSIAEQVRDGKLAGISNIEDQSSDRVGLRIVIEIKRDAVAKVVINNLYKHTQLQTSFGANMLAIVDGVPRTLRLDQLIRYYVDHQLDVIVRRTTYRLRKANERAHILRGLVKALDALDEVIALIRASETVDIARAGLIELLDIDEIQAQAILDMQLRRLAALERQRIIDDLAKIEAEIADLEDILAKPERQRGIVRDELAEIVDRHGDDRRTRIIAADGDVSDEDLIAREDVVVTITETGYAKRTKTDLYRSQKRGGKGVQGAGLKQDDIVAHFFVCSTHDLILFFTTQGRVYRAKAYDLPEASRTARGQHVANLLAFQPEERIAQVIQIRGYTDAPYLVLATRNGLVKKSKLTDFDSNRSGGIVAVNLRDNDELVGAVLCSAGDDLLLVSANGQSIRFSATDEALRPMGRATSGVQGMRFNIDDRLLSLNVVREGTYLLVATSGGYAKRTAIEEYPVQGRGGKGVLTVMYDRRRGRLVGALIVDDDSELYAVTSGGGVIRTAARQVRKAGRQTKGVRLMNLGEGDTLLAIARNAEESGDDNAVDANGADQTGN

SMILES	IC50 [1]	IC50 (supercoiling of relaxed pBR322 DNA, read-out: Mtb wt gyrase IC50) [µM]
Cc1ccc2c(c1)/C(=N/NC(=O)c1cc3ccccc3o1)C(=O)N2 [Compound 18, (Z)-N'-(5-Methyl-2-oxoindolin-3-ylidene)benzofuran-2-carbohydrazide]	~50 µM and 56.3 µM	
O=C1Nc2ccc(F)cc2/C1=N/NC(=O)c1ccncc1 [Compound 5, (Z)-N'-(5-Fluoro-2-oxoindolin-3-ylidene)isonicotinohydrazide]	> 200 µM	
O=C1Nc2ccc(OC(F)(F)F)cc2/C1=N/NC(=O)c1ccncc1 [Compound 7, (Z)-N'-(2-Oxo-5-(trifluoromethoxy)indolin-3-ylidene)isonicotinohydrazide]	> 200 µM	
O=C(N/N=C1\C(=O)N(c2ccccc2)c2ccccc21)c1ccncc1 [Compound 9, (Z)-N'-(2-Oxo-1-phenylindolin-3-ylidene)isonicotinohydrazide]	> 200 µM	
O=C1Nc2ccc(Cl)cc2/C1=N/NC(=O)c1cc2ccccc2o1 [Compound 17, (Z)-N'-(5-Chloro-2-oxoindolin-3-ylidene)benzofuran-2-carbohydrazide]	> 200 µM and 294 µM	
O=C(N/N=C1\C(=O)N(Cc2ccccc2)c2ccccc21)c1ccncc1 [Compound 10, (Z)-N'-(1-Benzyl-2-oxoindolin-3-ylidene)isonicotinohydrazide]	> 200 µM	
O=C1Nc2ccc(OC(F)(F)F)cc2/C1=N/NC(=O)c1ccccc1Nc1cccc(C(F)(F)F)c1 [Compound 25, (Z)-N'-(2-Oxo-5-(trifluoromethoxy)indolin-3-ylidene)-2-(3-(trifluoromethyl)phenylamino)-benzo-hydrazide]	> 200 µM	
O=C1Nc2ccc(Cl)cc2/C1=N/NC(=O)c1ccncc1 [Compound 4, (Z)-N'-(5-Chloro-2-oxoindolin-3-ylidene)isonicotinohydrazide]	> 200 µM	
Cc1cccc(Nc2ccccc2C(=O)N/N=C2\C(=O)N(Cc3ccccc3)c3ccccc32)c1C [Compound 23, (Z)-N'-(1-Benzyl-2-oxoindolin-3-ylidene)-2-(2,3-dimethylphenylamino)benzohydrazide]	> 200 µM	
Cc1ccc2c(c1)/C(=N/NC(=O)c1ccncc1)C(=O)N2 [Compound 6, (Z)-N'-(5-Methyl-2-oxoindolin-3-ylidene)isonicotinohydrazide]	> 200 µM	
O=C1Nc2ccc([N+](=O)[O-])cc2/C1=N/NC(=O)c1cc2ccccc2o1 [Compound 19, (Z)-N'-(5-Nitro-2-oxoindolin-3-ylidene)benzofuran-2-carbohydrazide]	89.9 µM	
O=C1Nc2ccccc2/C1=N/NC(=O)c1ccc([N+](=O)[O-])o1 [Compound 16, (Z)-5-Nitro-N'-(2-Oxoindolin-3-ylidene)furan-2-carbohydrazide]	> 200 µM	
O=C1Nc2ccc(F)cc2/C1=N/NC(=O)c1ccco1 [Compound 15, (Z)-N'-(5-Fluoro-2-oxoindolin-3-ylidene)furan-2-carbhydrazide]	> 200 µM	
O=C(N/N=C1\C(=O)N(Cc2ccccc2)c2ccc(Cl)cc21)c1ccncc1 [Compound 11, (Z)-N'-(1-Benzyl-5-chloro-2-oxoindolin-3-ylidene)isonicotinohydrazide]	> 200 µM	
Cc1ccc2c(c1)/C(=N/NC(=O)c1ccccc1Nc1c(Cl)ccc(C)c1Cl)C(=O)N2 [Compound 24, (Z)-2-(2,6-Dichloro-3-methylphenylamino)-N'-(5-methyl-2-oxoindolin-3-ylidene)-benzohydrazide]	> 200 µM	
Cc1ccc2c(c1)/C(=N/NC(=O)c1ccncc1)C(=O)N2Cc1ccccc1 [Compound 13, (Z)-N'-(1-Benzyl-5-methyl-2-oxoindolin-3-ylidene)isonicotinohydrazide]	> 200 µM	
O=C1Nc2ccc(F)cc2/C1=N/NC(=O)c1cc2cc([N+](=O)[O-])ccc2o1 [Compound 21, (Z)-N'-(5-Fluoro-2-oxoindolin-3-ylidene)-5-nitrobenzofuran-2-carbhydrazide]	> 200 µM	
O=C1/C(=N\NC(=O)C23CC4CC(CC(C4)C2)C3)c2ccccc2N1c1ccccc1 [Compound 22, (Z)-N'-(2-oxo-1-phenylindolin-3-ylidene)adamantane-1-carbohydrazide]		> 200
O=C1Nc2ccccc2/C1=N/NC(=O)c1ccncc1 [Compound 3, (Z)-N'-(2-Oxoindolin-3-ylidene)isonicotinohydrazide]	> 200 µM	
O=C(N/N=C1\C(=O)N(Cc2ccccc2)c2ccc(F)cc21)c1ccncc1 [Compound 12, (Z)-N'-(1-Benzyl-5-fluoro-2-oxoindolin-3-ylidene)isonicotinohydrazide]	> 200 µM	
O=C(N/N=C1\C(=O)N(c2ccccc2)c2ccccc21)c1cc2ccccc2o1 [Compound 20, (Z)-N'-(2-Oxo-1-phenylindolin-3-ylidene)benzofuran-2-carbohydrazide]	> 200 µM	
O=C1Nc2ccc([N+](=O)[O-])cc2/C1=N/NC(=O)c1ccncc1 [Compound 8, (Z)-N'-(5-Nitro-2-oxoindolin-3-ylidene)isonicotinohydrazide]	157 µM	
CCn1cc(C(=O)N/N=C2\C(=O)Nc3ccc(F)cc32)c(=O)c2ccc(C)nc21 [Compound 26, (Z)-1-Ethyl-N'-(5-fluoro-2-oxoindolin-3-ylidene)-7-methyl-4-oxo-1,4-dihydro-1,8-naphthyridine-3-carbohydrazide]	> 200 µM	
O=C1Nc2ccccc2/C1=N/NC(=O)c1cccnc1 [Compound 14, (Z)-N'-(2-Oxoindolin-3-ylidene)nicotinohydrazide]	> 200 µM	
